Where “and” joins values, the source holds several entries; their conditions need not be identical. Equal values may be shown once.
What was measured:
[1] = test system: human VEGF165 induced blood-retinal breakdown; assay: VEGF induced blood-retinal breakdown: rabbit retinal leakage model; assay type: in vivo; set-up: Geometric mean (right eye values adjusted for left eye values): unit not given here; conditions: for % reduction vs vehicle / Ratio vs Vehicle: Example 9, Table 4B; for Rt ratio of vitreoretinal fluorescein contents between right-induced and left eyes: Example 9; for Geometric mean (right eye values adjusted for left eye values): Example 42, Table 15B (i)
[2] = test system: VEGF165-induced proliferation of human umbilical vein endothelial cells (HUVEC); assay: Human Umbilical Cord Endothelial Cell (HUVEC) proliferation assay; assay type: cell-based; conditions: for Predicted Means for Max % Inhibition, Estimate: weighted mixed model analysis
Experimental: The assay measures the extent of endothelial cell proliferation induced by a defined concentration of VEGF165 and the ability of VEGF antagonists to block this effect. HUVECs were seeded at 5000 cells per well in 96-well gelatine-coated plates, leaving outer wells free of cells, and incubated for several hours to permit adherence. Test molecules were assayed at equimolar concentrations (max 3.33×10^−08M) with a 2-fold serial dilution, each in triplicate. The VEGF165 was prepared in basal medium to achieve 75 ng/ml final concentration. Medium was removed manually from the cell monolayers and 50 μl basal media was added to prevent the cells from drying out. 25 μl VEGF165-containing medium and 25 μl basal medium or test antibody-containing medium was added as appropriate. Cells were incubated for 72 hrs, after which time the total number of cells was determined using Cell Titre Glo.
The data was analysed using GraphPad Prism using a Sigmodial curve fit, variable slope cf a non-linear regression (variable slope). Individual curve fits were fitted for each molecule and at each day. Due to some poor fitting, it was decided to introduce constraints for the curve where a plateau was not observed at the lower concentration. This constraint would be equal to the mean of the points at the lowest concentration. Data was manually selected as to whether the minimum was constrained or not, and the curve fit and parameters were automatically updated based upon this criteria selection. Estimates of the curve maxima and the standard error were analysed using a weighted mixed model analysis of variance, using 1/(standard error)^2, [SE]^2, as a weighting. The analysis adjusted for variability between plates and days using random effects terms. […] The same analysis was then performed on the log 10 scale for the IC50, and the results back transformed.
The data was analysed using GraphPad Prism using a Sigmodial curve fit, variable slope cf a non-linear regression (variable slope). Individual curve fits were fitted for each molecule and at each day. Due to some poor fitting, it was decided to introduce constraints for the curve where a plateau was not observed at the lower concentration. One plate was excluded from the analysis due to poor curve fitting despite constraints. This constraint would be equal to the mean of the points at the lowest concentration. Data was manually selected as to whether the minimum was constrained or not, and the curve fit and parameters were automatically updated based upon this criteria selection. Estimates of the curve maxima and the standard error were analysed using a weighted mixed model analysis of variance, using 1/(standard error)^2, [SE]^2, as a weighting. The analysis adjusted for variability between plates and days using random effects terms. […]

[3] = target: VEGFR1 (Flt1) (Homo sapiens, UniProt P17948); conditions: background statement; cited from earlier work
Chain of VEGFR1 (Flt1) (P17948 27-1338, species assumed): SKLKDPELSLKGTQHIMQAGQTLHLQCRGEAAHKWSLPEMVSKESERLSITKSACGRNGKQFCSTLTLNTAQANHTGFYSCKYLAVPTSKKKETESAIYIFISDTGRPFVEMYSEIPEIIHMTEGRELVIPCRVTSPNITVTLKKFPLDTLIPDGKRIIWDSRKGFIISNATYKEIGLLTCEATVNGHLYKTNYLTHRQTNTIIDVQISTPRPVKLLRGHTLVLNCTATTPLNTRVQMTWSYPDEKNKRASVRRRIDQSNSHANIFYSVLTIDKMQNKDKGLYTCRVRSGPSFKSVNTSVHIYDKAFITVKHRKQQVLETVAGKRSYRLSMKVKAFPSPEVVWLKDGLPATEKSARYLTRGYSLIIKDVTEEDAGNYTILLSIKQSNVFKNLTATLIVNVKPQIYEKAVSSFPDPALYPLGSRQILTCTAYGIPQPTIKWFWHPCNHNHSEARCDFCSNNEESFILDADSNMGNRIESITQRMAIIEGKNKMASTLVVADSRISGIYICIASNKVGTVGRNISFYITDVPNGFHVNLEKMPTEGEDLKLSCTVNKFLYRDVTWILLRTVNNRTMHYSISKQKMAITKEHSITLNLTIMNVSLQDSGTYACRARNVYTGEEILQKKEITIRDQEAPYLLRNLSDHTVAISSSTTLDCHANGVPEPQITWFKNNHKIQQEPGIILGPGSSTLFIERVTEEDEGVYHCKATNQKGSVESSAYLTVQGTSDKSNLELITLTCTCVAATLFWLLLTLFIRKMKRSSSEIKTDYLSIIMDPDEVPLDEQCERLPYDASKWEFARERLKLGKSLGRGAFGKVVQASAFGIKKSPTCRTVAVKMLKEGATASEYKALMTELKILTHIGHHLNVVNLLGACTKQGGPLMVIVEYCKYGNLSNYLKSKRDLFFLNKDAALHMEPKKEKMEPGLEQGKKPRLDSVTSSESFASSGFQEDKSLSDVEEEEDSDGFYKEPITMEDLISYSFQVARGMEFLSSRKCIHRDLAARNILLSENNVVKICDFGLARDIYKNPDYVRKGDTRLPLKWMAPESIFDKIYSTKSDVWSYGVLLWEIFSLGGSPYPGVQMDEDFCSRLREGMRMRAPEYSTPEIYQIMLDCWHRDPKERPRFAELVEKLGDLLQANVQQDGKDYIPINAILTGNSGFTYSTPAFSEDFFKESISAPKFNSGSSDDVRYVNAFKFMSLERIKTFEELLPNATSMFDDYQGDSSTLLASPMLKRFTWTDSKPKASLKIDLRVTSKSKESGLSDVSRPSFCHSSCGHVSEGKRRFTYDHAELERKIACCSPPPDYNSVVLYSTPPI

[4] = target: T1, mVEGF R2 Fc (R&D 443-KD/CF) (mouse, UniProt P35918 20-762); assay: MSD on coated mouse VEGF164 (1ug/mL mVEGF capture), detection with sulfo-TAG anti-human IgG Fc
T1 construct: Bought control protein; not shown: Fc part of the bought fusion
T1 sequence (P35918 20-762 limits assumed): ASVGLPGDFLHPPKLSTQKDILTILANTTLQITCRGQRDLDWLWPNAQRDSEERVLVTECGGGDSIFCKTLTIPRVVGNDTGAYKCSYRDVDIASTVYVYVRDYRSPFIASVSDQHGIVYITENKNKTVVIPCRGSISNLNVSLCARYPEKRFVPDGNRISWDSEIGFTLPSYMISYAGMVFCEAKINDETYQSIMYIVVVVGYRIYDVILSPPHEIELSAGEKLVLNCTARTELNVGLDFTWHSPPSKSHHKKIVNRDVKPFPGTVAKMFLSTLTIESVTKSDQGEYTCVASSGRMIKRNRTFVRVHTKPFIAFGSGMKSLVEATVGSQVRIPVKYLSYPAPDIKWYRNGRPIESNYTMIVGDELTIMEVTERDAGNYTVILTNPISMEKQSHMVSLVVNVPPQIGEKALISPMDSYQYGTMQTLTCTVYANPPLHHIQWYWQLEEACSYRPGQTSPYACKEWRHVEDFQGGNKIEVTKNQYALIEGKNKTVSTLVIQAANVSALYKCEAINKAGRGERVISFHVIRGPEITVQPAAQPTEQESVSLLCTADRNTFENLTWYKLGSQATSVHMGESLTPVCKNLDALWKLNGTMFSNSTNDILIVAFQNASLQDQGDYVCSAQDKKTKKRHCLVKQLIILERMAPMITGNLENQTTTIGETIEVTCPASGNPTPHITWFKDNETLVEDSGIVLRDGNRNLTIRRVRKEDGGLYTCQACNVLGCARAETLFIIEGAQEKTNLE

[5] = Example 42, Table 15B (ii), 2000 μg/eye
[6] = dose H (high), VEGF induced retinal leakage

With `C[C@]12C=CC(=O)C=C1CC[C@H]1[C@@H]3C[C@@H](O)[C@](O)(C(=O)CO)[C@@]3(C)C[C@H](O)[C@@]12F` [Kenacort, Triamcinalone] the “% reduction vs vehicle” value ([1]; 2000 μg/eye) was 85%, the “Ratio vs Vehicle” value ([1]; 2000 μg/eye) was 0.1485 and the “Rt ratio of vitreoretinal fluorescein contents between right-induced and left eyes” value (“Rt ratio” below) ([1]; Kenacort 2000 μg/eye IVT Day -7) was 1.15±0.61. For the same molecule, the “Geometric mean (right eye values adjusted for left eye values)” value (“Geometric mean” below) ([1]; 2000 μg/eye) was 10205.21, the “% reduction” value [1, 5] was 80% and 79.9922% and the “ratio (to vehicle)” value [1, 5] was 0.2001.

For Bevacizumab [Avastin], the “inhibit HUVEC proliferation” value ([2]; Example 8, VEGF165 75 ng/ml, 72 hrs, maximum extent of inhibition) was about 100%, the “inhibition of VEGF driven HUVEC proliferation (extent)” value ([2]; Example 18, data not shown) was about 100% and the “Predicted Means for Max % Inhibition, Estimate” value ([2]; Table 14A) was 73.5423%. The “Predicted Means for Max % Inhibition, Estimate” value ([2]; Table 18A) was 71.0316%, the “% reduction vs vehicle” value [1, 6] was 75% and the “% reduction vs vehicle” value ([1]; dose H (high), VEGF induced retinal leakage, listed as Bevacizumab) was 75%. The “Geometric mean” value ([1]; dose H, IVT Day -7) was 12332.94, the “Geometric mean” value ([1]; dose L) was 12037.98 and the “Geometric mean” value ([1]; dose L/3) was 14592.62. The “% reduction” value ([1]; Example 42, Table 15B (ii), dose H) was 75.8207%, the “% reduction” value ([1]; Example 42, Table 15B (ii), dose L) was 76.3990% and the “% reduction” value ([1]; Example 42, Table 15B (ii), dose L/3) was 71.3905%. The “reduction of VEGF induced retinal leakage” value ([1]; Example 42, the three different doses (H, L, L/3)) was 71.4-76.4%.

For Ranibizumab [Lucentis], the “Ratio vs Vehicle” value ([1]; dose H (high)) was 0.1826, the “% reduction vs vehicle” value [1, 6] was 82% and the “% reduction vs vehicle” value ([1]; dose H (high), VEGF induced retinal leakage, listed as Ranibizumab) was 82%. The “Ratio vs Vehicle” value ([1]; low dose (L)) was 0.2188, the “% reduction vs vehicle” value ([1]; low dose (L), VEGF induced retinal leakage) was 78% and the “% reduction vs vehicle” value ([1]; low dose (L), VEGF induced retinal leakage, listed as Ranibizumab) was 78%. The “Rt ratio” value ([1]; IVT Day -7, 500 ng rhVEGF165 Day 0, read Day 2, dose H (high)) was 1.05±0.52 and the “Rt ratio” value ([1]; IVT Day -7, 500 ng rhVEGF165 Day 0, read Day 2, low dose (L)) was 1.81±1.76.

For VEGF, the Kd [3] is listed as about 0.03 nM.

B1: mouse VEGF164 (R&D 493-MV/CF) (ligand, UniProt Q00731-2 27-190, looked up)
chain: APTTEGEQKSHEVIKFMDVYQRSYCRPIETLVDIFQEYPDEIEYIFKPSCVPLMRCAGCCNDEALECVPTSESNITMQIMRIKPHQSQHIGEMSFLQHSRCECRPKKDRTKPENHCEPCSERRKHLFVQDPQTCKCSCKNTDSRCKARQLELNERTCRCDKPRR
notes: Bought reagent; also called mVEGF164; murine VEGF164
B1: binds [4].

From patent publication US20170029494A1, “Antigen Binding Constructs” (Glaxo Group Limited, priority 2011, published 2017)
